From patent US20220340665A1, “INHIBITOR AGAINST EXPRESSION OF IMMUNE CHECKPOINT MOLECULE” (RENASCIENCE INC., priority 2019, published 2022)

Tested on: human ovarian clear cell adenocarcinoma cell line (ES2)
Experiment: PD-L1 expression in tumor cells of ES2 tumor mass in nude mice (Experimental Example 9)
Assay type: in vivo
Conditions: ES2 subcutaneous in nude mice; 10 mg/kg orally once daily, 7 days; vs vehicle
Experimental: The efficacy of the PAI-1 inhibitor against human cancer cells (ovarian cancer cells) was studied in vivo. Specifically, 5×10^5 cells of a human ovarian clear cell adenocarcinoma cell line (ES2) were transplanted subcutaneously in nude mice. One week later, engraftment of more than 5 mm of tumor mass in the major axis was confirmed. Subsequently, the PAI-1 inhibitor was orally administered once daily at 10 mg/kg for a total of 7 days. On the next day of the final administration, the tumor mass was collected from the mice, chopped with scissors, suspended in a 0.025% collagenase solution (FUJIFILM Wako Pure Chemical Corporation), and treated at 37° C. for 2 hours to break cell-cell bonds. The cells obtained by enzymatic treatment were stained with an anti-PD-L1 antibody (clone name: 10F.G92) labelled with Allophycocyanin (APC), and the PD-L1 expression level in the tumor cells was determined with a flow cytometer. As a comparative control experiment, cells were collected also from the tumor mass in the same manner in terms of a mouse group to which only physiological saline (vehicle) was administered instead of the PAI-1 inhibitor, and the PD-L1 expression level in the tumor cells was determined with a flow cytometer.

O=C(Nc1ccc(Cl)cc1C(=O)[O-])c1cccc(-c2cccc3cccnc23)c1.[Na+] [Example 68, 5-chloro-2-(((3-(quinolin-8-yl)phenyl)carbonyl)amino)sodium benzoate]
PD-L1 expression level in the tumor cells: reduced
